Test results as given in patent US20260078130A1, “NAMPT MODULATORS, PREPARATIONS, AND USES THEREOF” (SIRONAX LTD., priority 2022, published 2026).

Columns and labels:
[1] = molecular target: T1, human enzyme NAMPT (full length) (Homo sapiens, UniProt P43490); assay: NMN fluorescence biochemical assay (stimulation of NMN synthesis by NAMPT); details: for EC50: NMN fluorescence assay, purified human NAMPT 100 nM, concentration giving half-maximal activation, read-out: Enzymatic EC50; for Enzymatic Emax: fold change of maximal activation compared to DMSO
T1 construct: human enzyme NAMPT (full length)
T1 sequence (P43490 whole entry): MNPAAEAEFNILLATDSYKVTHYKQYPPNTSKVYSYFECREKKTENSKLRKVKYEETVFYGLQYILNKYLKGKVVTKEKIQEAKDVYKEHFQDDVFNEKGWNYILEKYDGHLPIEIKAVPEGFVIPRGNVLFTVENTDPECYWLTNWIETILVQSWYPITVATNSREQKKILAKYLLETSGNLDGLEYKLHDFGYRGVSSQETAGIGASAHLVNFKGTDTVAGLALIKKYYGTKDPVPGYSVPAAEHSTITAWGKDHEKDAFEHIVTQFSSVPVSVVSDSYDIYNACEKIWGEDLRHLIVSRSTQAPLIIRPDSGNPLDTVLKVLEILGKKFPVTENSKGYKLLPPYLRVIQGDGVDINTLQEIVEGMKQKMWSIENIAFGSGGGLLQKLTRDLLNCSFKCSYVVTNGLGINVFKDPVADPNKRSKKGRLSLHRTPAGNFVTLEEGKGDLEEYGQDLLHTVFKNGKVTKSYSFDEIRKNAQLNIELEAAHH
Outline: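 Full-length human NAMPT (100 nM) was preincubated 15 min at 37 °C with compound in 50 mM Tris-HCl pH 7.5, 10 mM MgCl2, 2 mM DTT, then reacted 1 h at 37 °C with 50 μM NAM, 100 μM PRPP, 4 mM ATP (stated solution concentrations). NMN was derivatised with acetophenone/KOH then formic acid and read at Ex/Em 382/445 nm; EC50 and Emax (fold over DMSO) reported.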

[2] = tested on: endogenous NAMPT in U2OS cells; assay: Cellular NAD+ modulation assay (NAD/NADH-Glo, U2OS cells); assay type: cell-based; details: Homo sapiens, 24 hours incubation, cellular NAD+; for maximal fold induction: read-out: Cellular Emax
Outline: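 Endogenous NAMPT stimulation in U2OS cells treated with compound dilution series for 24 h at 37 °C. Cells lysed with DTAB base, acid-treated 15 min at 60 °C, neutralized, NAD+ read by NAD/NADH-Glo luminescence after 40 min at room temperature. EC50 and Emax (fold over DMSO) derived.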

Row | SMILES | EC50 [1] | Enzymatic Emax [1] | EC50 [2] | maximal fold induction [2]
1 | COc1ccc(CN2C(=O)c3ccccc3C2(C)Cc2c(Cl)cnn2C)cn1 (centres unmarked) [Compound 620, 3-((4-chloro-1-methyl-1H-pyrazol-5-yl)methyl)-2-((6-methoxypyridin-3-yl)methyl)-3-methylisoindolin-1-one] | ≥ 5 µM | B (3≥B>2) | 0.5 to 5 µM | 1.2 to 1.5
2 | COc1ccc(CN2C(=O)c3cnccc3C2Cc2c(C)ccnc2C#N)cc1 (centres unmarked) [Compound 621, 3-((2-(4-methoxybenzyl)-3-oxo-2,3-dihydro-1H-pyrrolo[3,4-c]pyridin-1-yl)methyl)-4-methylpicolinonitrile] | ≥ 5 µM | B (3≥B>2) | 0.5 to 5 µM | > 1.5
3 | COc1ccc(CN2C(=O)c3ccc(Br)cc3C2Cc2c(Cl)cnn2C)cn1 (centres unmarked) [Compound 622, 5-bromo-3-((4-chloro-1-methyl-1H-pyrazol-5-yl)methyl)-2-((6-methoxypyridin-3-yl)methyl)isoindolin-1-one] | ≥ 5 µM | A (A>3) | 0.5 to 5 µM | > 1.5
4 | COc1ccc(CN2C(=O)c3ccc(C4CC4)cc3C2Cc2c(Cl)cnn2C)cn1 (centres unmarked) [Compound 623, 3-((4-chloro-1-methyl-1H-pyrazol-5-yl)methyl)-5-cyclopropyl-2-((6-methoxypyridin-3-yl)methyl)isoindolin-1-one] | ≥ 5 µM | A (A>3) | 0.5 to 5 µM | > 1.5
5 | COc1ccc(CN2C(=O)c3ccc(C4CC4)cc3C2Cc2c(Cl)cnn2C)cc1 (centres unmarked) [Compound 624, 3-((4-chloro-1-methyl-1H-pyrazol-5-yl)methyl)-5-cyclopropyl-2-(4-methoxybenzyl)isoindolin-1-one] | 0.5 to 5 µM | B (3≥B>2) | 0.5 to 5 µM | 1.2 to 1.5
6 | COc1ccc(CN2C(=O)c3ccccc3C2Cc2c(Cl)ccn(C)c2=O)cn1 (centres unmarked) [Compound 625, 3-((4-chloro-1-methyl-2-oxo-1,2-dihydropyridin-3-yl)methyl)-2-((6-methoxypyridin-3-yl)methyl)isoindolin-1-one] | 0.5 to 5 µM | A (A>3) | 0.5 to 5 µM | > 1.5
7 | Cc1nnn2cc(CN3C(=O)c4ccccc4C3Cc3c(Cl)cnn3C)ccc12 (centres unmarked) [Compound 627, 3-((4-chloro-1-methyl-1H-pyrazol-5-yl)methyl)-2-((3-methyl-[1,2,3]triazolo[1,5-a]pyridin-6-yl)methyl)isoindolin-1-one] | ≥ 5 µM | B (3≥B>2) | 0.5 to 5 µM | 1.2 to 1.5
8 | Cn1ncc(Cl)c1CC1c2ccccc2C(=O)N1Cc1cnc(N)s1 (centres unmarked) [Compound 628, 2-((2-aminothiazol-5-yl)methyl)-3-((4-chloro-1-methyl-1H-pyrazol-5-yl)methyl)isoindolin-1-one] | ≥ 5 µM | B (3≥B>2) | < 0.5 µM | 1.2 to 1.5
9 | Cn1ncc(Cl)c1CC1c2ccccc2C(=O)N1Cc1cn[nH]c1 (centres unmarked) [Compound 629, 2-((1H-pyrazol-4-yl)methyl)-3-((4-chloro-1-methyl-1H-pyrazol-5-yl)methyl)isoindolin-1-one] | < 0.5 µM | B (3≥B>2) | < 0.5 µM | 1.2 to 1.5
10 | Cn1ncc(Cl)c1CC1c2ccccc2C(=O)N1Cc1c[nH]c(=S)s1 (centres unmarked) [Compound 631, 3-((4-chloro-1-methyl-1H-pyrazol-5-yl)methyl)-2-((2-thioxo-2,3-dihydrothiazol-5-yl)methyl)isoindolin-1-one] | ≥ 5 µM | A (A>3) | 0.5 to 5 µM | > 1.5
11 | Cn1ncc(Cl)c1CC1c2ccccc2C(=O)N1Cc1n[nH]c(=O)o1 (centres unmarked) [Compound 632, 5-((1-((4-chloro-1-methyl-1H-pyrazol-5-yl)methyl)-3-oxoisoindolin-2-yl)methyl)-1,3,4-oxadiazol-2(3H)-one] | ≥ 5 µM | B (3≥B>2) | 0.5 to 5 µM | > 1.5
12 | Cc1nc(O)sc1CN1C(=O)c2ccccc2C1Cc1c(Cl)cnn1C (centres unmarked) [Compound 635, 3-((4-chloro-1-methyl-1H-pyrazol-5-yl)methyl)-2-((2-hydroxy-4-methylthiazol-5-yl)methyl)isoindolin-1-one] | 0.5 to 5 µM | B (3≥B>2) | 0.5 to 5 µM | > 1.5
13 | Cn1ncc(Cl)c1CC1c2ccccc2C(=O)N1Cc1c[nH]nn1 (centres unmarked) [Compound 637, 2-((1H-1,2,3-triazol-4-yl)methyl)-3-((4-chloro-1-methyl-1H-pyrazol-5-yl)methyl)isoindolin-1-one] | ≥ 5 µM | B (3≥B>2) | < 0.5 µM | 1.2 to 1.5
14 | COc1ccc(CN2C(=O)c3ccc(C4CC4)cc3C2Cc2c(C)ncnc2C#N)cc1 (centres unmarked) [Compound 638, 5-((6-cyclopropyl-2-(4-methoxybenzyl)-3-oxoisoindolin-1-yl)methyl)-6-methylpyrimidine-4-carbonitrile] | 0.5 to 5 µM | A (A>3) | < 0.5 µM | 1.2 to 1.5
15 | COc1ccc(CN2C(=O)c3ccc(Cl)cc3C2Cc2c(C)ncnc2C#N)cn1 (centres unmarked) [Compound 639, 5-((6-chloro-2-((6-methoxypyridin-3-yl)methyl)-3-oxoisoindolin-1-yl)methyl)-6-methylpyrimidine-4-carbonitrile] | ≥ 5 µM | B (3≥B>2) | 0.5 to 5 µM | 1.2 to 1.5
16 | COc1ccc(CN2C(=O)c3ccc(C4CC4)cc3C2Cc2c(C)ncnc2C#N)cn1 (centres unmarked) [Compound 640, 5-((6-cyclopropyl-2-((6-methoxypyridin-3-yl)methyl)-3-oxoisoindolin-1-yl)methyl)-6-methylpyrimidine-4-carbonitrile] | ≥ 5 µM | A (A>3) | 0.5 to 5 µM | 1.2 to 1.5
17 | COc1ccc(CN2C(Cc3c(Cl)cnn3C)c3ccccc3S2(=O)=O)cc1 (centres unmarked) [Compound 641, 3-((4-chloro-1-methyl-1H-pyrazol-5-yl)methyl)-2-(4-methoxybenzyl)-2,3-dihydrobenzo[d]isothiazole 1,1-dioxide] | ≥ 5 µM | A (A>3) | < 0.5 µM | 1.2 to 1.5
